Measured values reported in BindingDB's records for doi:10.1021/jm00171a003 (Merck, 1990).
Numbered stars: 1 amine (or outer) side, 2 acyl side, 3 side chain; on linkers, the order of the positions; unused ones are H or OH. Square brackets hold non-standard residues; d marks the D form. Peptide text beside a SMILES is read from it. X6 = CN(C)C[C@H]1C=NN([*:1])[C@H](C(=O)[*:2])C1; X5 = O=C1CC[C@@H](C(=O)[*:2])N([*:1])N1; dPiz(1,6-dehydro) = O=C(O)[C@H]1CCC=NN1; X2 = CN1CCC[C@@H](C(=O)[*:2])N1[*:1]; X1 = CN1CCC[C@H](C(=O)[*:2])N1[*:1]; X7 = O=C([C@@H]1C=CC=NN1[*:1])[*:2]; X3 = O=C([C@H]1CCCNN1[*:1])[*:2]; dNMeF = CN[C@H](Cc1ccccc1)C(=O)O

Each compound was assayed against Vasopressin V1a receptor (Rattus norvegicus) (UniProt P30560) (assay: Binding affinity against Vasopressin receptor in rat liver).
Sequence of Vasopressin V1a receptor (Rattus norvegicus) (P30560 whole entry, looked up): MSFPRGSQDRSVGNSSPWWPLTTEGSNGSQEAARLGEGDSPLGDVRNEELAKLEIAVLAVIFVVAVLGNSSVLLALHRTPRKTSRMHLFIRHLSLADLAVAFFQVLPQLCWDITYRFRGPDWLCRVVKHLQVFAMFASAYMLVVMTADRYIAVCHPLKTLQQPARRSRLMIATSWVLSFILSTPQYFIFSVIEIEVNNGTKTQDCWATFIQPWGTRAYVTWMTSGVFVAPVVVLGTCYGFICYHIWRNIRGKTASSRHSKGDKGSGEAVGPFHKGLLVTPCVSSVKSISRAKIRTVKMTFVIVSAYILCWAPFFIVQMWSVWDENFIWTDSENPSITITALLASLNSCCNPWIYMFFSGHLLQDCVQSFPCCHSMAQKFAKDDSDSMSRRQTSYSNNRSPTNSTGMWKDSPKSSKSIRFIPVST

Ki | Structure (SMILES)
140 nM | CC[C@@H](C)[C@@H]1NC(=S)[C@@H](Cc2ccccc2)NC(=O)[C@@H]2CCCN2C(=O)[C@@H](Cc2ccccc2)N(C)C(=O)[C@@H]2CCC=NN2C(=O)[C@H]2CCC=NN2C1=O
3900 nM | CC[C@H](C)[C@@H]1NC(=O)[C@@H](Cc2ccccc2)NC(=O)[C@@H]2CCCN2C(=O)[C@@H](Cc2ccccc2)N(C)C(=O)[C@@H]2CCC(=O)NN2C(=O)[C@H]2CCCNN2C1=O (cyclo(I[X3][X5][dNMeF]P[dF]))
1600 nM | CC[C@H](C)[C@@H]1NC(=O)[C@@H](Cc2ccccc2)NC(=O)[C@@H]2CCCN2C(=O)[C@@H](Cc2ccccc2)N(C)C(=O)[C@@H]2CCC(=O)NN2C(=O)[C@H]2CCC=NN2C1=O (cyclo(I[dPiz(1,6-dehydro)][X5][dNMeF]P[dF]))

Biological target: Vasopressin V1a receptor (Rattus norvegicus) (UniProt P30560)
Experiment: as above
Remark: another data set of the same source

Ki | Structure (SMILES)
7400 nM | CC[C@H](C)[C@@H]1NC(=O)[C@@H](Cc2ccccc2)NC(=O)[C@@H]2CCCN2C(=O)[C@@H](Cc2ccccc2)N(C)C(=O)[C@@H]2CCCN(C)N2C(=O)[C@H]2CCCN(C)N2C1=O (cyclo(I[X1][X2][dNMeF]P[dF]))
390 nM | CC[C@H](C)[C@@H]1NC(=O)[C@@H](Cc2ccccc2)NC(=O)[C@@H]2CCCN2C(=O)[C@@H](Cc2ccccc2)N(C)C(=O)[C@@H]2C=CC=NN2C(=O)[C@H]2CCC=NN2C1=O (cyclo(I[dPiz(1,6-dehydro)][X7][dNMeF]P[dF]))
> 30000 nM | CC[C@H](C)[C@@H]1NC[C@@H](Cc2ccccc2)NC(=O)[C@@H]2CCCN2C(=O)[C@@H](Cc2ccccc2)N(C)C(=O)[C@@H]2CCC=NN2C(=O)[C@H]2CCC=NN2C1=O
550 nM | CC[C@H](C)[C@@H]1NC(=O)[C@@H](Cc2ccccc2)NC(=O)[C@@H]2CCCN2C(=O)[C@@H](Cc2ccccc2)N(C)C(=O)[C@@H]2C[C@@H](CN(C)C)C=NN2C(=O)[C@H]2CCC=NN2C1=O (cyclo(I[dPiz(1,6-dehydro)][X6][dNMeF]P[dF]))
2200 nM | CC[C@H](C)[C@H]1C(=O)N2NCCC[C@@H]2C(=O)N2NCCC[C@H]2C(=O)N(C)[C@H](Cc2ccccc2)C(=O)N2CCC[C@H]2C(=O)N[C@H](Cc2ccccc2)C(=O)N1O
